From PubChem BioAssay AID292 (DTP/NCI, 2004)
“And” between values parts separate entries of the source, which are not always exact repeats. Equal values may be shown once. Toxic doses and inconclusive results are not listed. How the source made its calls: active means survival T/C of 150% or more; inactive means T/C below 125% in these data.

Test system: B6C3F1 mice, ip Sarcoma M5076, median survival T/C
Test: NCI In Vivo Anticancer Drug Screen. Data for tumor model Sarcoma M5076 (intraperitoneal) in B6C3F1 mice
Conditions: endpoint: median survival time, higher = longer survival
Method in brief: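 The readout is a ratio of survival in drug-treated animals to survival in animals given vehicle alone, taken in mice bearing a transplanted tumour line.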

[1] = dose: 75.0 mg/kg/injection, schedule: Q04DX004 (ip), vehicle: saline
[2] = dose: 150.0 mg/kg/injection, schedule: Q04DX004 (ip), vehicle: saline
[3] = dose: 50.0 mg/kg/injection, schedule: Q04DX004 (ip), vehicle: saline with Tween-80
[4] = dose: 100.0 mg/kg/injection, schedule: Q04DX004 (ip), vehicle: saline with Tween-80
[5] = dose: 200.0 mg/kg/injection, schedule: Q04DX004 (ip), vehicle: saline with Tween-80
[6] = dose: 400.0 mg/kg/injection, schedule: Q04DX004 (ip), vehicle: saline with Tween-80

Measured: T/C

C=CCCC(=O)CCCC(=O)O[C@@H]1[C@@H]2[C@H](CC1(C)C)[C@H](O)[C@@]13O[C@@H]1[C@H](O)[C@@]1(CO1)[C@@]23C
inactive: dose: 50.0 micrograms/kg/injection, schedule: Q04DX004 (ip), vehicle: Klucel (hydroxypropylcellulose) (HPC) 92 % of control | dose: 100.0 micrograms/kg/injection, schedule: Q04DX004 (ip), vehicle: Klucel (hydroxypropylcellulose) (HPC) 96 % of control | dose: 200.0 micrograms/kg/injection, schedule: Q04DX004 (ip), vehicle: Klucel (hydroxypropylcellulose) (HPC) 96 % of control | dose: 400.0 micrograms/kg/injection, schedule: Q04DX004 (ip), vehicle: Klucel (hydroxypropylcellulose) (HPC) 96 % of control | dose: 800.0 micrograms/kg/injection, schedule: Q04DX004 (ip), vehicle: Klucel (hydroxypropylcellulose) (HPC) 93 % of control

COc1cccc2sc(-n3c(C)nc4ccccc4c3=O)nc12
inactive: dose: 31.25 mg/kg/injection, schedule: Q04DX004 (ip), vehicle: Klucel (hydroxypropylcellulose) (HPC) 109 % of control | dose: 62.5 mg/kg/injection, schedule: Q04DX004 (ip), vehicle: Klucel (hydroxypropylcellulose) (HPC) 94 % of control | dose: 125.0 mg/kg/injection, schedule: Q04DX004 (ip), vehicle: Klucel (hydroxypropylcellulose) (HPC) 93 % of control | dose: 250.0 mg/kg/injection, schedule: Q04DX004 (ip), vehicle: Klucel (hydroxypropylcellulose) (HPC) 94 % of control | dose: 500.0 mg/kg/injection, schedule: Q04DX004 (ip), vehicle: Klucel (hydroxypropylcellulose) (HPC) 95 % of control

O=S(O)Cc1ccccc1CSSSCc1ccccc1CS(=O)O
inactive: dose: 50.0 mg/kg/injection, schedule: Q04DX004 (ip), vehicle: saline 105 % of control | dose: 50.0 mg/kg/injection, schedule: Q04DX004 (ip), vehicle: suspension in saline 111 % of control | dose: 100.0 mg/kg/injection, schedule: Q04DX004 (ip), vehicle: saline 103 % of control | dose: 100.0 mg/kg/injection, schedule: Q04DX004 (ip), vehicle: suspension in saline 95 % of control | dose: 200.0 mg/kg/injection, schedule: Q04DX004 (ip), vehicle: saline 94 % of control | dose: 400.0 mg/kg/injection, schedule: Q04DX004 (ip), vehicle: saline 99 % of control | dose: 400.0 mg/kg/injection, schedule: Q04DX004 (ip), vehicle: suspension in saline 91 % of control | dose: 800.0 mg/kg/injection, schedule: Q04DX004 (ip), vehicle: saline 95 % of control | dose: 800.0 mg/kg/injection, schedule: Q04DX004 (ip), vehicle: suspension in saline 91 % of control

Cc1c(-c2ccc(-c3ccccc3F)cc2)nc2ccc(F)cc2c1C(=O)O
inactive: dose: 6.25 mg/kg/injection, schedule: Q01DX009 (ip), vehicle: water 124 % of control | dose: 12.5 mg/kg/injection, schedule: Q01DX009 (ip), vehicle: water 123 % of control | dose: 25.0 mg/kg/injection, schedule: Q01DX009 (ip), vehicle: water 124 % of control

CCN(CC)CCOC(=O)c1cc2cc3cc(C(=O)OCCN(CC)CC)c(=O)oc3c(C)c2oc1=O
inactive: dose: 37.5 mg/kg/injection, schedule: Q04DX004 (ip), vehicle: saline 100 % of control | [1] 92 % of control | [2] 93 % of control

COc1ccc(-c2c(N3CCOCC3)oc3cc(N4CCOCC4)c(O)cc23)cc1
inactive: [3] 95 % of control | [4] 104 % of control | [5] 98 % of control | [6] 95 % of control

CC1(O)C=CC(=O)C=C1
inactive: dose: 12.5 mg/kg/injection, schedule: Q04DX004 (ip), vehicle: water 104 % of control | dose: 25.0 mg/kg/injection, schedule: Q04DX004 (ip), vehicle: water 102 % of control and 113 % of control | dose: 50.0 mg/kg/injection, schedule: Q04DX004 (ip), vehicle: water 109 % of control and 114 % of control

CCN(CC)Cc1c(OC)ccc2[nH]c3c4ccc(Cl)cc4ncc3c12
inactive: dose: 15.63 mg/kg/injection, schedule: Q04DX004 (ip), vehicle: saline with Tween-80 104 % of control | dose: 31.25 mg/kg/injection, schedule: Q04DX004 (ip), vehicle: saline with Tween-80 106 % of control | dose: 62.5 mg/kg/injection, schedule: Q04DX004 (ip), vehicle: saline with Tween-80 105 % of control | dose: 125.0 mg/kg/injection, schedule: Q04DX004 (ip), vehicle: saline with Tween-80 101 % of control | dose: 250.0 mg/kg/injection, schedule: Q04DX004 (ip), vehicle: saline with Tween-80 100 % of control

CNC(=O)c1ccccc1CNC(=S)Nc1cccc(C)c1
inactive: dose: 37.5 mg/kg/injection, schedule: Q04DX004 (ip), vehicle: Klucel (hydroxypropylcellulose) (HPC) 92 % of control | dose: 75.0 mg/kg/injection, schedule: Q04DX004 (ip), vehicle: Klucel (hydroxypropylcellulose) (HPC) 102 % of control | dose: 150.0 mg/kg/injection, schedule: Q04DX004 (ip), vehicle: Klucel (hydroxypropylcellulose) (HPC) 99 % of control | dose: 300.0 mg/kg/injection, schedule: Q04DX004 (ip), vehicle: Klucel (hydroxypropylcellulose) (HPC) 102 % of control

COCCCNC1=C(C#N)C(=O)NC2(CCCC2)S1
inactive: [3] 97 % of control | [4] 97 % of control | [5] 97 % of control | [6] 90 % of control

CC(=O)C1C(=O)C(=O)N(c2ccc(Cl)cc2)C1=O (stereo not given)
inactive: dose: 50.0 mg/kg/injection, schedule: Q04DX004 (ip), vehicle: Klucel (hydroxypropylcellulose) (HPC) 111 % of control | dose: 100.0 mg/kg/injection, schedule: Q04DX004 (ip), vehicle: Klucel (hydroxypropylcellulose) (HPC) 103 % of control | dose: 200.0 mg/kg/injection, schedule: Q04DX004 (ip), vehicle: Klucel (hydroxypropylcellulose) (HPC) 99 % of control | dose: 400.0 mg/kg/injection, schedule: Q04DX004 (ip), vehicle: Klucel (hydroxypropylcellulose) (HPC) 93 % of control | dose: 800.0 mg/kg/injection, schedule: Q04DX004 (ip), vehicle: Klucel (hydroxypropylcellulose) (HPC) 92 % of control

COc1cc2c(oc(=O)c3cc(C)cc(OC)c32)c2c(C3OC(C)C(O)C(C)(O)C3O)ccc(O)c12 (stereo not given)
inactive: dose: 3.12 mg/kg/injection, schedule: Q04DX004 (ip), vehicle: DMSO 106 % of control and 107 % of control | dose: 6.25 mg/kg/injection, schedule: Q04DX004 (ip), vehicle: DMSO 101 % of control and 109 % of control | dose: 12.5 mg/kg/injection, schedule: Q04DX004 (ip), vehicle: DMSO 101 % of control and 107 % of control | dose: 25.0 mg/kg/injection, schedule: Q04DX004 (ip), vehicle: DMSO 109 % of control and 112 % of control | dose: 50.0 mg/kg/injection, schedule: Q04DX004 (ip), vehicle: DMSO 103 % of control and 109 % of control

OCC(O)C(O)C(O)C(O)CO (stereo not given)
inactive: [1] 96 % of control and 102 % of control | [2] 111 % of control | dose: 300.0 mg/kg/injection, schedule: Q04DX004 (ip), vehicle: saline 96 % of control and 100 % of control | dose: 600.0 mg/kg/injection, schedule: Q04DX004 (ip), vehicle: saline 92 % of control and 101 % of control | dose: 1200.0 mg/kg/injection, schedule: Q04DX004 (ip), vehicle: saline 101 % of control and 106 % of control

COC1C(O)CC(OC2CC(Oc3cc4cc5c(c(O)c4c(O)c3C)C(=O)[C@@H](OC3CC(OC4CC(OC6CC(C)(O)C(OC(C)=O)C(C)O6)C(O)C(C)O4)C(O)C(C)O3)[C@H]([C@H](OC)C(=O)[C@@H](O)[C@@H](C)O)C5)OC(C)C2OC(C)=O)OC1C (stereo not given in full)
inactive: dose: 37.5 micrograms/kg/injection, schedule: Q04DX004 (ip), vehicle: water 110 % of control | dose: 75.0 micrograms/kg/injection, schedule: Q04DX004 (ip), vehicle: water 111 % of control

O=C(Nc1ccccc1O)C1C(=O)C(=O)N(c2ccccc2O)C1=O (stereo not given)
inactive: [3] 106 % of control | [4] 103 % of control | [5] 100 % of control | [6] 100 % of control | dose: 800.0 mg/kg/injection, schedule: Q04DX004 (ip), vehicle: saline with Tween-80 95 % of control

COC1C(CO)OC(n2c3c(Cl)cccc3c3c4c(c5c6cccc(Cl)c6[nH]c5c32)C(=O)NC4=O)C(O)C1O (stereo not given)
inactive: dose: 46.75 mg/kg/injection, schedule: Q04DX004 (ip), vehicle: distilled water + Tween-80 113 % of control | dose: 50.0 mg/kg/injection, schedule: Q04DX004 (ip), vehicle: distilled water + Tween-80 116 % of control | dose: 93.5 mg/kg/injection, schedule: Q04DX004 (ip), vehicle: distilled water + Tween-80 118 % of control | dose: 100.0 mg/kg/injection, schedule: Q04DX004 (ip), vehicle: distilled water + Tween-80 117 % of control and 118 % of control | dose: 200.0 mg/kg/injection, schedule: Q04DX004 (ip), vehicle: distilled water + Tween-80 118 % of control | dose: 374.0 mg/kg/injection, schedule: Q04DX004 (ip), vehicle: distilled water + Tween-80 108 % of control | dose: 748.0 mg/kg/injection, schedule: Q04DX004 (ip), vehicle: distilled water + Tween-80 115 % of control | dose: 800.0 mg/kg/injection, schedule: Q04DX004 (ip), vehicle: distilled water + Tween-80 117 % of control
